Laboratory results taken from patent publication US12216122B2, “Compositions and methods relating to detection, inhibition, and imaging of indoleamine 2,3-dioxygenase 1 (IDO1)” (Regeneron Pharmaceuticals, Inc., priority 2019, dated 2025).
Read-outs that look alike come from different tables or passages of the source. Numbered stars: 1 amine (or outer) side, 2 acyl side, 3 side chain; on linkers, the order of the positions; unused ones are H or OH. Bridge positions count the residues as written; N and C are the ends. Square brackets hold non-standard residues; d marks the D form. Triazole bridges read from a SMILES are 1,4-linked. Ends that are not written are not given here. Peptide text beside a SMILES is read from it. * marks the point of attachment. NH(CH2CH2O)5CH2CO = O=C(COCCOCCOCCOCCOCCN[*:1])[*:2]; X2 = O=C(CCCCCSc1nonc1/C(=N/O)Nc1ccc(F)c(Br)c1)*; X1 = O=C(CSc1nonc1/C(=N/O)Nc1ccc(F)c(Br)c1)*; Trp(1-Me) = Cn1cc(C[C@H](N)C(=O)O)c2ccccc21; PEG8 = NCCOCCOCCOCCOCCOCCOCCOCCOCCC(=O)O; Lys(N3) = [N-]=[N+]=NCCCC[C@H](N)C(=O)O; Phe(4-F) = N[C@@H](Cc1ccc(F)cc1)C(=O)O; PEG6 = NCCOCCOCCOCCOCCOCCOCCC(=O)O; Pra = C#CC[C@H](N)C(=O)O

Key:
[1] = target: T1, IDO1 in IFNγ stimulated HeLa cells (Homo sapiens, UniProt P14902); assay: IDO1 inhibition assay in HeLa cells stimulated with IFNγ; type: cell-based; conditions: for inhibition at 8 µM: HeLa
T1 construct: endogenous in cells; host or cells: HeLa cells stimulated with IFNγ
T1 sequence (P14902 whole entry): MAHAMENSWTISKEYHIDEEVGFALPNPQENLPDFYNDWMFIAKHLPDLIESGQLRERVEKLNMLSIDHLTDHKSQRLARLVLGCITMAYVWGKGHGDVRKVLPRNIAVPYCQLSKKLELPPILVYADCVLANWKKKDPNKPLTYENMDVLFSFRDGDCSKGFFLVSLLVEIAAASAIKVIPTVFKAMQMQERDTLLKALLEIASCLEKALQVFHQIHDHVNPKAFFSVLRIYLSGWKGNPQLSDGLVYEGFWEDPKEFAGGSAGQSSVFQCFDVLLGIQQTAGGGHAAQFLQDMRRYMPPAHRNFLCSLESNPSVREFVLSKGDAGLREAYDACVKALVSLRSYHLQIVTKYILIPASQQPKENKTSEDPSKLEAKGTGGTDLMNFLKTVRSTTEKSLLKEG
Protocol: Lead compounds prioritized in the recombinant IDO1 inhibition assay were advanced to a cellular IDO1 inhibition assay.
Protocol: HeLa cells were trypsinized and diluted to a density of 2×10^5 cells/mL in cell culture medium (DMEM+10% Fetal Bovine Serum (FBS)+1% Penicillin/Streptomycin). Sterile L-tryptophan was added to the cells at a final concentration of 300 μM. IFNγ at a final concentration of 100 ng/mL was added to HeLa cells to stimulate IDO1 expression. Unstimulated HeLa cells in the absence of IFNγ were used for background subtraction. HeLa cells with or without IFNγ were plated in 96-well Greiner black assay plates at a density of 22,000 cells/well. […] 8 μL of each compound dilution were then dispensed into the Greiner black 96-well assay plate(s) containing HeLa cells in triplicate, yielding final assay compound concentrations of 8 μM serially diluted to 1.27 nM. The plates were incubated at 37° C. with 5% CO2. After 48 hours, 24 μL of 0.5 M methyl isonipecotate in DMSO were added into each well and the plates were sealed and incubated at 37° C. with 5% CO2 overnight. The resulting fluorescence was measured in a BioTek Synergy H1 plate reader with a 400 nm excitation filter and a 510 nm emission filter. The fluorescence intensity of each well was corrected for the background observed in wells with non-IFNγ-treated cells and was expressed as a fraction of the intensity observed in wells of IFNγ-treated cells with vehicle only.

recombinant human IDO1 = target: T2, recombinant human IDO1 (Homo sapiens, UniProt P14902); assay: IDO1 Fluorogenic Inhibitor Screening Assay (enzyme inhibition); type: biochemical
T2 construct: purchased BPS Biosciences 72037
T2 sequence (P14902 whole entry): as above
Protocol: The IDO1 Fluorogenic Inhibitor Screening Assay Kit (72037, BPS Biosciences) was used to measure the enzyme inhibition of human IDO1 in the presence of macrocyclic peptide ligands. IDO1 catalyzes the conversion of the essential amino acid L-tryptophan (L-Trp) to N-formylkynurenine (NFK). In the assay, the test inhibitor and enzyme were added to a sample containing L-Trp substrate. After incubation for 1 h at room temperature, 20 μL Fluorescence Solution was added and incubated at 37° C. for 4 h to produce a fluorescent product. Activity was measured by reading sample fluorescence at λ=510 nm following excitation of the reaction product at λ=400 nm.

[2] = target: T3, His-tagged IDO1 human recombinant protein (Homo sapiens, UniProt P14902); assay: IDO1 ELISA (Affinity Assay): sandwich ELISA, biotinylated ligand immobilized on NEUTRAVIDIN plate; type: binding; conditions: binding analysis of VHL-linked Epitope 2 ligand; read-out: EC50
T3 construct: purchased BPS Biosciences 71182
T3 sequence (P14902 whole entry): as above
Protocol: Protocol: A black 96-well NEUTRAVIDIN® Coated High Binding Capacity plate (15510, Pierce) was coated with 2 μM biotinylated macrocyclic peptide ligand in TBS (25 mM Tris-HCl, 150 mM NaCl, pH 7.6) for 2 h at room temperature. The plate was aspirated and then washed with Wash Buffer (0.05% (v/v) TWEEN® 20 in PBS, 6×). His-tagged IDO1 human recombinant protein (71182, BPS Biosciences) was serially diluted in Wash Buffer (from 200 to 0 nM) and incubated in the designated microwells for 1 h at room temperature. Microwells were aspirated and subsequently washed with Wash Buffer (11×). To detect the bound IDO1 protein, Alkaline Phosphatase (AP)-conjugated Anti-6×HIS TAG® antibody [HIS-1] (ab49746, Abcam) was prepared at 1:10,000 dilution and added to the microwells for 1 h at room temperature. The plate was aspirated and washed with Wash Buffer (5×). ATTOPHOS® AP Fluorescent Substrate System (S1000, Promega) was employed to develop the microwells. Using an excitation wavelength of 430 nm, fluorescent emission at 535 nm was recorded by Beckman Coulter DTX880 photometer. Titration curves were fit using a four-parameter regression curve fitting program to determine EC50 values.
For these assays, a dilution series of His-tagged IDO1 human recombinant protein was captured using the macrocyclic peptide ligands immobilized on a NEUTRAVIDIN®-coated plate. […] The sequences of the peptide ligands are listed in Table 1, where D-amino acids are denoted in lowercase, Me-Trp=1-methyl-L-tryptophan, and F-Phe=4-fluoro-L-phenylalanine. Chemical structures are shown below Table 1.
The D-alanine substituted, biotin-PEG3-modified macrocycles were tested in the IDO1 ELISA (Affinity assay). For these assays, a dilution series of His-tagged IDO1 human recombinant protein was captured using macrocycles immobilized on a NEUTRAVIDIN®-coated plate.

HeLa cells = assay: Cellular internalization of fluorescent IDO1 ligands (flow cytometry); type: cell-based; conditions: Cy5 or FITC label, flow cytometry
Protocol: Internalization of fluorescently labeled peptides (using Cy5 or FITC) was measured by concentration dependent flow cytometry of unstimulated HeLa cells incubated for one hour with the peptide. […] Internalization was also testing using a cellular inhibition assay, which occurs over 48 hours (rather than the one hour for the flow cytometry assay). Internalized FITC-wyvay (SEQ ID NO:2) at 48 hours was compared to one hour in both unstimulated and stimulated HeLa cells (Table 13). Cell penetration of FITC-wyvay (SEQ ID NO:2) increases with time; more internalized FITC-wyvay (SEQ ID NO:2) can be detected at 48 hours compared to one hour. After one hour, no difference in intracellular staining of FITC-wyvay (SEQ ID NO:2) is observed in unstimulated versus stimulated cells. At 48 hours, there is a slight increase in intracellular FITC-wyvay (SEQ ID NO:2) in stimulated compared to unstimulated cells.
Protocol: HeLa cells were cultured to confluence (˜500,000 cells) in 6-well plates in cell culture medium (DMEM+10% Fetal Bovine Serum (FBS)+1% Penicillin/Streptomycin) or in cell culture medium containing 100 ng/mL IFNγ to stimulate IDO1 expression. The cells were treated with 2 μM or 8 μM macrocyclic IDO1 ligand labeled with either Cy5 or FITC for either 1 hour, 24 hours, or 48 hours as indicated. After treatment, the ligands were aspirated and the cells were washed twice with 1× Phosphate Buffered Saline (PBS). The cells were then harvested by treatment with 0.05% Trypsin-1×EDTA for 5 min at 37° C. Trypsin was quenched by the addition of PBS+2% FBS. The cells in suspension were washed twice in PBS+2% FBS, then resuspended in 500 μL PBS+2% FBS and analyzed for Cy5 or FITC fluorescence using a BD LSR Fortessa X-20 flow cytometer or/and ImageStream X Mark II imaging flow cytometer. Flow Cytometry Standard (fcs) data files were analyzed using FlowJo Software version 10.

[3] = read-out: % inhibition at 8 μM, HeLa, Table 17
[4] = Table 18, read-out: Inhibition HeLa IC50
[5] = Table 19, read-out: Inhibition HeLa cells IC50
[6] = Table 18, read-out: Inhibition Recombinant IDO1 IC50
[7] = Table 19, read-out: Inhibition Human rIDO1 IC50
[8] = PEG linker length series, wyry, read-out: IC50
[9] = Table 17, read-out: Inhibition Recombinant IDO1 IC50
[10] = N-methylated heterobiligands, PEG6 linker, read-out: IC50
[11] = PEG linker length series, wyvay, read-out: IC50
[12] = Table 15, read-out: Inhibition Recombinant IDO1 IC50

## CC(C)[C@H]1NC(=O)[C@@H](Cc2ccc(O)cc2)NC(=O)[C@@H](Cc2c[nH]c3ccccc23)NC(=O)[C@@H](NC(=O)CCOCCOCCOCCOCCOCCOCCOCCOCCNC(=O)CSc2nonc2/C(=N/O)Nc2ccc(F)c(Br)c2)Cc2cn(nn2)CCCC[C@@H](C(N)=O)NC(=O)[C@@H](Cc2ccc(O)cc2)NC(=O)[C@@H](C)NC1=O [Deprotected-Inh-PEG8-wyvay] ({X1-PEG8}-[Pra][dW][dY][dV][dA][dY][Lys(N3)]-NH2; triazole 1-7)
[1]; [3]
  inhibition at 8 µM: 77.3%

## CC(C)[C@H]1NC(=O)[C@@H](Cc2ccc(O)cc2)NC(=O)[C@@H](Cc2c[nH]c3ccccc23)NC(=O)[C@@H](NC(=O)COCCOCCOCCOCCOCCNC(=O)CCCCCSc2nonc2/C(=N/O)Nc2ccc(F)c(Br)c2)Cc2cn(nn2)CCCC[C@@H](C(N)=O)NC(=O)[C@@H](Cc2ccc(O)cc2)NC(=O)[C@@H](C)NC1=O [Inh2-PEG5-wyvay] (X2-[NH(CH2CH2O)5CH2CO][Pra][dW][dY][dV][dA][dY][Lys(N3)]-NH2; triazole 2-8)
[1]; [4]
  IC50: 0.221 µM
[1]; [5]
  IC50: 0.221 µM
Recombinant human IDO1; [6]
  IC50: 539 nM
Recombinant human IDO1; [7]
  IC50: 539 nM

## O=C(O)CCCCCSc1nonc1/C(=N/O)Nc1ccc(F)c(Br)c1 [Inh2]
[1]; [4]
  IC50: 0.997 µM
[1]; [5]
  IC50: 0.997 µM
Recombinant human IDO1; [6]
  IC50: 343 nM
Recombinant human IDO1; [7]
  IC50: 343 nM

## N=C(N)NCCC[C@H]1NC(=O)[C@@H](Cc2ccc(O)cc2)NC(=O)[C@@H](Cc2c[nH]c3ccccc23)NC(=O)[C@@H](NC(=O)CCOCCOCCOCCOCCOCCOCCNC(=O)CSc2nonc2/C(=N/O)Nc2ccc(F)c(Br)c2)Cc2cn(nn2)CCCC[C@@H](C(N)=O)NC(=O)[C@@H](Cc2ccc(O)cc2)NC1=O [Inh-PEG6-wyry] ({X1-PEG6}-[Pra][dW][dY][dR][dY][Lys(N3)]-NH2; triazole 1-6)
[1]; [3]
  inhibition at 8 µM: 47.8%
[1]; Table 17
  Inhibition HeLa IC50 nM: no curve fit
Recombinant human IDO1
  IDO1 inhibition potency relative to the small molecule (Inh) alone, in words: more than three times as potent as Inh alone
Recombinant human IDO1; [8]
  IC50: 338 nM
Recombinant human IDO1; [9]
  IC50: 338 nM

## CC(C)[C@H]1NC(=O)[C@@H](Cc2ccc(O)cc2)NC(=O)[C@@H](Cc2c[nH]c3ccccc23)NC(=O)[C@@H](NC(=O)CCOCCOCCOCCOCCOCCOCCNC(=O)CSc2nonc2/C(=N/O)Nc2ccc(F)c(Br)c2)Cc2cn(nn2)CCCC[C@@H](C(N)=O)NC(=O)[C@@H](Cc2ccc(O)cc2)NC(=O)[C@@H](C)NC1=O [Inh-PEG6-wyvay] ({X1-PEG6}-[Pra][dW][dY][dV][dA][dY][Lys(N3)]-NH2; triazole 1-7)
[1]; read-out: % inhibition at 8 μM, HeLa cells, Table 19
  inhibition at 8 µM: 36.1%
[1]; [3]
  inhibition at 8 µM: 36.1%
[1]; Table 17, cells print μM, read-out: Inhibition HeLa IC50
  IC50: 35.7 µM
[1]; [5]
  IC50: 35.7 µM
Recombinant human IDO1; [10]
  IC50: 44 nM
Recombinant human IDO1; [11]
  IC50: 265 nM
Recombinant human IDO1; [12]
  IC50: 44 nM
Recombinant human IDO1; [7]
  IC50: 265 nM

## O=C(O)CSc1nonc1/C(=N/O)Nc1ccc(F)c(Br)c1 [Inh]
[1]; [3]
  inhibition at 8 µM: 99.6%
[1]; Table 15, read-out: Inhibition HeLa cells IC50
  IC50: 0.125 µM
[1]; Table 17, read-out: Inhibition HeLa IC50
  IC50: 0.244 µM
[1]; [4]
  IC50: 0.406 µM
[1]; [5]
  IC50: 0.406 µM
[2]
  EC50: > 1000 nM
Recombinant human IDO1; [10]
  IC50: 928 nM
Recombinant human IDO1; [8]
  IC50: 1090 nM
Recombinant human IDO1; [11]
  IC50: 1050 nM
Recombinant human IDO1; [12]
  IC50: 928 nM
Recombinant human IDO1; [9]
  IC50: 1090 nM
Recombinant human IDO1; [6]
  IC50: 1090 nM
Recombinant human IDO1; [7]
  IC50: 1050 nM
Recombinant human IDO1; effect of linker and of protection of the inhibitor, read-out: IC50
  IC50: 616 nM
Recombinant human IDO1; linker composition series, read-out: IC50
  IC50: 693 nM

## Cy5-nlf(Me-Trp)(F-Phe): Cy5 labeled Epitope 2 macrocycle nlf(Me-Trp)(F-Phe) ([dN][dL][dF][Trp(1-Me)][Phe(4-F)]; triazole (positions not given here); not fully specified (N-terminus, C-terminus, bridges); printed as Cy5-nlf(Me-Trp)(F-Phe); also: Cy5 label, macrocycle, closure not given here)
HeLa cells
  Internalization of fluorescently labeled peptide, in words: detected by flow cytometry and imaging

## FITC-nlf(Me-Trp)(F-Phe): FITC labeled Epitope 2 macrocycle nlf(Me-Trp)(F-Phe) ([dN][dL][dF][Trp(1-Me)][Phe(4-F)]; triazole (positions not given here); also: FITC label, site not given here, macrocycle by click between N-terminal Pra and C-terminal Az4, not in chain)
HeLa cells
  Internalization of fluorescently labeled peptide, in words: reduced but detectable and concentration dependent

## d-Hex-Inh-PEG4-wyvay: heterobiligand with linker modified to increase lipophilicity, PEG4 ([dW][dY][dV][dA][dY]; also: d-Hex-inhibitor via PEG4 linker)
[1]
  Cellular IDO1 inhibition, in words: only showed inhibition at higher concentrations

## d-Hex-Inh-PEG5-wyvay: heterobiligand with linker modified to increase lipophilicity, PEG5 ([dW][dY][dV][dA][dY]; also: d-Hex-inhibitor via PEG5 linker)
[1]
  Cellular IDO1 inhibition, in words: good inhibition/cell penetration

## d-Hex-Inh-PEG6-wyvay: heterobiligand with linker modified to increase lipophilicity, PEG6 ([dW][dY][dV][dA][dY]; also: d-Hex-inhibitor via PEG6 linker)
[1]
  Cellular IDO1 inhibition, in words: only showed inhibition at higher concentrations
